# Active and inactive are the calls of the source. The rule behind the calls is not given here.
# Assays:
# [1] = target: T1, Retinoic acid receptor gamma (Homo sapiens, UniProt P13631); test: Binding affinity against Retinoic acid receptor gamma was determined in vitro by using [3H]ATRA as radioligand
# T1 sequence (P13631 whole entry): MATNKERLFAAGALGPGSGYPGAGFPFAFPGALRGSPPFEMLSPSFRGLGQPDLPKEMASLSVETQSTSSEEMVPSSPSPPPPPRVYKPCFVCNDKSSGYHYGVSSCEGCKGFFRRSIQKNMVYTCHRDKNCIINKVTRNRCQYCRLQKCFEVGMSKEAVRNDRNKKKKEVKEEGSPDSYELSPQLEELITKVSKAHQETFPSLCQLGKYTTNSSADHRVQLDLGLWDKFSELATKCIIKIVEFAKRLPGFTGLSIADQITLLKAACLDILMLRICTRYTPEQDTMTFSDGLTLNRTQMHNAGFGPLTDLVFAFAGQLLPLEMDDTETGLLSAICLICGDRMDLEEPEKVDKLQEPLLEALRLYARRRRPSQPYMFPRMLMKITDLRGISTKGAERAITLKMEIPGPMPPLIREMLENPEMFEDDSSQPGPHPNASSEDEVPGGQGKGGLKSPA
# [2] = RXR:RAR synergy expressed as fold induction
# RXR alpha/PPAR gamma = RXR alpha/PPAR gamma (Homo sapiens, UniProt P19793)
# Sequence of RXR alpha/PPAR gamma (P37231 whole entry, one chain of several): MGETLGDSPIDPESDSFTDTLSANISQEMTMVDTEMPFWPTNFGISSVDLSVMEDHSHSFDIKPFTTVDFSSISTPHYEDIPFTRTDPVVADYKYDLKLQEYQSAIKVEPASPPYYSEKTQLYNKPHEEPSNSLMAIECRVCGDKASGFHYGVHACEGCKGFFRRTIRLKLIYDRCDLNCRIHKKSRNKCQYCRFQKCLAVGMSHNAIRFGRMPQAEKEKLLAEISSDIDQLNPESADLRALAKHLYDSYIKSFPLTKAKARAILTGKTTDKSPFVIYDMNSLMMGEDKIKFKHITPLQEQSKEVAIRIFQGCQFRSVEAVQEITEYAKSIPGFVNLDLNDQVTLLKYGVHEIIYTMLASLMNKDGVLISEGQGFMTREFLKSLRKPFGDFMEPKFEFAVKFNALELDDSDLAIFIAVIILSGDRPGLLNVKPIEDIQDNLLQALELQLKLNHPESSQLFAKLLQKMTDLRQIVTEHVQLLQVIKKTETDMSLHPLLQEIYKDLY
# Description: Transcriptional activity against RXR:PPAR-gamma synergy was determined in vitro
# [3] = target: T2, Retinoic acid receptor RXR-alpha (Homo sapiens, UniProt P19793)
# T2 sequence (P19793 whole entry): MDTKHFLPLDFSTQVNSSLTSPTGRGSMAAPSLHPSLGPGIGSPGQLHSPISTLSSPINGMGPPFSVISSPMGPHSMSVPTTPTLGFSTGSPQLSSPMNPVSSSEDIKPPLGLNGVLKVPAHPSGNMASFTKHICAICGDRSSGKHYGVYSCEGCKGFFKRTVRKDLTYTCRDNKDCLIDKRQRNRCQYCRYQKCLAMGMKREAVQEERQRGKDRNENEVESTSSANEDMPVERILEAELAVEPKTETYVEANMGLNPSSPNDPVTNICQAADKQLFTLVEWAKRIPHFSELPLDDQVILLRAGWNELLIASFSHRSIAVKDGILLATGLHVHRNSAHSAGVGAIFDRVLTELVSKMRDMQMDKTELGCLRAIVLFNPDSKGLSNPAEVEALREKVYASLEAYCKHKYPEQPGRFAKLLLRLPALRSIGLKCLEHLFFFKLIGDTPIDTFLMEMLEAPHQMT
# Description: Binding affinity against Retinoic acid receptor RXR-alpha was determined in vitro by using [3H]9-cis-RA as radioligand
# [4] = target: T2, Retinoic acid receptor RXR-alpha; remark: listed apart in the source
# Description: Inhibition of Retinoic acid receptor RXR-alpha agonist activity in vitro
# [5] = Transcriptional activation in CV-1 cells expressing RXR and LXR at 1 uM; type: functional
# Mus musculus [6] = test: In vivo hypoglycemic activity, as reduced plasma glucose in db/db mouse type II diabetes model; type: functional
# Mus musculus [7] = test: In vivo hypoglycemic activity compared to BRL-46953 as reduced plasma glucose in db/db mouse type II diabetes model; type: functional
# Rattus norvegicus [8] = species: Rattus norvegicus; test: Effect on T4 levels in male Dawley rats at 24 hr r; type: functional
# Rattus norvegicus [9] = species: Rattus norvegicus; test: Effect on triglyceride level in male Dawley rats at 24 hr r; type: functional
# [10] = target: T2, Retinoic acid receptor RXR-alpha; test: Inhibitory activity against Retinoic acid receptor RXR-alpha antagonist was determined in vitro; type: functional
# [11] = target: T3, Retinoic acid receptor RXR-alpha (Homo sapiens) (UniProt P19793)
# T3 sequence (whole entry): T2 sequence (P19793 whole entry)
Ki [1] [µM],Synergy [2] [fold],EC50 (RXR alpha/PPAR gamma) [µM],Ki [3] [µM],EC50 [4] [µM],IC50 [10] [µM],Structure (SMILES),Activation [5] [fold],Activity (Mus musculus [6]) [mg/dL],Normalization (Mus musculus [7]) [%],Activity (Rattus norvegicus [8]) [ng/mL],Activity (Rattus norvegicus [9]) [mg/dL],NB [11]
10,10,0.008,0.001,0.002,,COc1c(\C(C)=C/C=C/C(C)=C/C(=O)O)cc(C(C)C)cc1C(C)C,,,,,,
10,2,0.006,0.002,0.506,,CCC(C)(C)c1cc(\C(C)=C/C=C/C(C)=C/C(=O)O)c(OC)c(C(C)(C)CC)c1,,,,,,
10,1,0.011,,,0.016,CCC(C)(C)c1cc(\C(C)=C/C=C/C(C)=C/C(=O)O)c(OCC(F)F)c(C(C)(C)CC)c1,,,,,,
2.5,2,0.009,0.002,,0.017,CCOc1c(\C(C)=C/C=C/C(C)=C/C(=O)O)cc(C(C)(C)CC)cc1C(C)(C)CC,,,,,,
1.86,2,0.003,0.003,,0.006,C/C(=C/C=C/C(C)=C/C(=O)O)c1cc(C(C)C)cc(C(C)C)c1OCC(F)(F)F,,,,,,
10,4,0.004,0.001,0.007,0.004,C/C(=C/C=C/C(C)=C/C(=O)O)c1cc(C(C)C)cc(C(C)C)c1OCCF,,,,,,
10,1,0.154,0.014,,0.043,CCCOc1c(\C(C)=C/C=C/C(C)=C/C(=O)O)cc(C(C)(C)C)cc1C(C)(C)C,,,,,,
10,1,0.019,0.023,,0.013,CCCOc1c(\C(C)=C/C=C/C(C)=C/C(=O)O)cc(C(C)(C)CC)cc1C(C)(C)CC,,,,,,
4.03,1,0.002,,,0.008,C/C(=C/C=C/C(C)=C/C(=O)O)c1cc(C(C)(C)C)cc(C(C)(C)C)c1OCC(F)(F)F,,,,,,
10,2,0.005,0.003,,0.004,CCCOc1c(\C(C)=C/C=C/C(C)=C/C(=O)O)cc(C(C)C)cc1C(C)C,,,,,,
10,3,0.01,0.002,,0.001,C/C(=C/C=C/C(C)=C/C(=O)O)c1cc(C(C)C)cc(C(C)C)c1OCC(F)F,,,,,,
,,,,,,CN(CCOc1ccc(CC2SC(=O)NC2=O)cc1)c1ccccn1.O=C(O)/C=C\C(=O)O (stereo not drawn) [ROSIGLITAZONE MALEATE],,412,100,70,78,inactive
10,3,0.007,0.001,0.036,,COc1c(\C(C)=C/C=C/C(C)=C/C(=O)O)cc(C(C)(C)C)cc1C(C)(C)C,,,,,,
10,5,0.001,0.002,0.002,,CCOc1c(\C(C)=C/C=C/C(C)=C/C(=O)O)cc(C(C)C)cc1C(C)C,,,,,,

Structure (SMILES),Ki [1] [µM],Synergy [2] [fold],EC50 (RXR alpha/PPAR gamma) [µM],Ki [3] [µM],EC50 [4] [µM],IC50 [10] [µM],Activation [5] [fold],Activity (Mus musculus [6]) [mg/dL],Normalization (Mus musculus [7]) [%],Activity (Rattus norvegicus [8]) [ng/mL],Activity (Rattus norvegicus [9]) [mg/dL],NB [11]
C/C(=C/C=C/C(C)=C/C(=O)O)c1cc(C(C)(C)C)cc(C(C)(C)C)c1OCC(F)F,10,2,,,,,1.2,409,101,70,75,
Cc1cc2c(cc1C1(c3ccc(C(=O)O)cn3)CC1)C(C)(C)CCC2(C)C,,7,,,,,6.3,400,101,37,152,
CCCCOc1c(\C(C)=C/C=C/C(C)=C/C(=O)O)cc(C(C)C)cc1C(C)C,10,1,0.012,0.004,,0.004,0.6,502,33,72,63,
CCOc1c(\C(C)=C/C=C/C(C)=C/C(=O)O)cc(C(C)(C)C)cc1C(C)(C)C,10,3,0.002,0.011,0.018,0.008,2.04,412,100,25,92,

# — ChEMBL document CHEMBL1145809, “Novel (2E,4E,6Z)-7-(2-alkoxy-3,5-dialkylbenzene)-3-methylocta-2,4,6-trienoic acid retinoid X receptor modulators are active in models of type 2 diabetes” (J Med Chem, 2003)
